Molecules are shown by their SMILES. Like-named read-outs stand apart in the source and are kept apart here.

Assay [1] has as its target T1, CETP (enriched CETP fraction obtained from human plasma) (Homo sapiens, UniProt P11597).
T1 construct: CETP is obtained in partially purified form from human plasma; from tissue; host or cells: human plasma (d>1.21 g/ml bottom fraction; Phenyl-Sepharose, CM-Sepharose, Mono Q)
T1 sequence (P11597 18-493): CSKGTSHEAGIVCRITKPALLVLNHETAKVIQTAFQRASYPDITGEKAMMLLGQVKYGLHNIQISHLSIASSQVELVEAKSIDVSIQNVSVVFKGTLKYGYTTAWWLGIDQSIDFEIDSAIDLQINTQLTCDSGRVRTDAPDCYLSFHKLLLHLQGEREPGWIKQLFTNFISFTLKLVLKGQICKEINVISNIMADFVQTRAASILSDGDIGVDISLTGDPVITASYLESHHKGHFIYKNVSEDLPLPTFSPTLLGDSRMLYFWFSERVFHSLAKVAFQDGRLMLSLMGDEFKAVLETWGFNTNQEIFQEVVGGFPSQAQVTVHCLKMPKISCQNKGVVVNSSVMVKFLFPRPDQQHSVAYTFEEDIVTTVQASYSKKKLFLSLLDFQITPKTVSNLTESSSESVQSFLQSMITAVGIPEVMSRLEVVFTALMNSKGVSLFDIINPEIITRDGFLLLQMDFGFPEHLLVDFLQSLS
Nature of the assay: CETP fluorescence test with enriched CETP. Format: biochemical. To be noted: 37° C., 4 hours, CE transfer between liposomes. The protocol: (§1) CETP is obtained in partially purified form from human plasma by differential centrifugation and column chromatography and used for the test. To this end, human plasma is adjusted to a density of 1.21 g per ml using NaBr and centrifuged at 4° C. at 50 000 rpm for 18 h. The bottom fraction (d>1.21 g/ml) is applied to a Sephadex® Phenyl-Sepharose 4B (Pharmacia) column, washed with 0.15 M NaCl/0.001 M tris-HCl pH 7.4 and then eluted with distilled water. The CETP-active fractions are pooled, dialyzed against 50 mM sodium acetate pH 4.5 and applied to a CM-Sepharose® column (Pharmacia). The mixture is then eluted using a linear gradient (0-1 M NaCl). The pooled CETP fractions are dialyzed against 10 mM tris/HCl pH 7.4 and then further purified by chromatography on a Mono Q® column (Pharmacia).
Measurement of the CETP-catalyzed transfer of a fluorescent cholesterol ester between liposomes [modified according to the procedure of Bisgaier et al., J. Lipid Res. 34, 1625 (1993)]: […]
The change in the fluorescence at 485/535 nm is a measure of the CE transfer; the inhibition of the transfer in comparison to the control batch without substance is determined. […]

For assay [2], the target named is T2, CETP (Homo sapiens, UniProt P11597).
T2 sequence (P11597 18-493): T1 sequence (P11597 18-493)
Description: CETP-SPA test. The settings on record: transfer of 3H-cholesterol ester from human HDL to biotinylated LDL, 37° C., 18 h. It counts as biochemical. Set-up: CETP is obtained in partially purified form from human plasma; from tissue; host or cells: human plasma (d>1.21 g/ml bottom fraction; Phenyl-Sepharose, CM-Sepharose, Mono Q). The protocol: as §1
50 ml of fresh human EDTA plasma is adjusted to a density of 1.12 using NaBr and centrifuged at 4° C. in a Ty 65 rotor at 50 000 rpm for 18 h. The upper phase is used for the obtainment of cold LDL. […]
For testing of the CETP activity, the transfer of ^3H-cholesterol ester from human HD lipoproteins to biotinylated LD lipoproteins is measured. The reaction is ended by addition of streptavidin-SPA® beads (Amersham) and the transferred radioactivity is determined directly in a liquid scintillation counter. […]

The next assay addresses T3, CETP in human plasma (Homo sapiens, UniProt P11597).
T3 construct: tissue Sigma P9523; host or cells: human plasma (purchased, unfractionated)
T3 sequence (P11597 18-493): T1 sequence (P11597 18-493)
Description: CETP fluorescence test with human plasma. It counts as biochemical. The settings on record: 86% v/v human plasma, 37° C., 24 h. The procedure:
For the production of the donor liposomes, 1 mg of cholesteryl 4,4-difluoro-5,7-dimethyl-4-bora-3a,4a-diaza-s-indacene-3-dodecanoate (cholesteryl BODIPY® FL C1-2, Molecular Probes) is dissolved in 600 μl of dioxane with 5.35 mg of triolein and 6.67 mg of phosphatidylcholine with gentle warming in an ultrasonic bath and this solution is added very slowly with ultrasonication to 63 ml of 50 mM tris/HCl, 150 mM NaCl, 2 mM EDTA buffer pH 7.3 at room temperature. The suspension is then ultrasonicated under an N2 atmosphere for 30 minutes in the Branson ultrasonic bath at about 50 watts, the temperature being kept at about 20° C.
6 μl (12% v/v) of donor liposomes and 1 μl (2% v/v) of a solution of the substance to be investigated in DMSO are added to 42 μl (86% v/v) of human plasma (Sigma P9523), and the mixture is incubated at 37° C. for 24 h.
The change in the fluorescence at 510/520 nm (gap width 2.5 nm) is a measure of the CE transfer; the inhibition of the transfer in comparison to the control batch without substance is determined. […]

For assay [3], the target named is T2, CETP. Nature of the assay: Ex vivo activity on transgenic hCETP mice (CETP activity in the serum). Also noted: from tissue; host or cells: serum of transgenic hCETP mice (host Mus musculus) after oral dosing. To be noted: mouse, 3 mg/kg oral, cholesteryl ester transport. The protocol:
10 μl of buffer and 2 μl of serum are added to 80 μl of test mix, and the mixture is incubated at 37° C. for 4 h.
The change in the fluorescence at 485/535 nm is a measure for the CE transfer; the inhibition of the transfer in comparison to the control batch without substance is determined.
To test for CETP-inhibitory activity, the substances are administered orally using a stomach tube to transgenic hCETP mice bred in-house [Dinchuk et al. BBA 1295-301 (1995)]. To this end, male animals are randomly assigned to groups having an equal number of animals, as a rule n=4, one day before the start of the experiment. Before administration of the substance, blood is taken from each mouse by puncture of the retro-orbital venous plexus for the determination of its basal CETP activity in the serum (T1). The test substance is then administered to the animals using the stomach tube. […]
After termination of the clotting, the blood samples are centrifuged and the serum is removed by pipette. For the determination of the CETP activity, the cholesteryl ester transport over 4 h is determined. […]
The differences in the cholesteryl ester transport [pM CE/h (T2)−pM CE/h (T1)] are calculated for each animal and averaged in the groups. […]

What is called IC50 is the point on the concentration scale where inhibition reaches its midpoint. Read a high IC50 as a need for much substance. Take `O[C@H]1CC2(CC2)Cc2nc(C3CCCC3)c([C@@H](F)c3ccc(C(F)(F)F)cc3)c(C3CCCC3)c21` [Example 1]: the figures for the IC50 (in assay [1]; against CETP [2]; against CETP in human plasma) were 15 nM, 24 nM and 40 nM, respectively.

With `O[C@H]1CC2(CC2)Cc2nc(C3CCCC3)c([C@@H](F)c3ccc(C(F)(F)F)cc3)c(C3CCCCC3)c21` [Example 1], the inhibition at 3 mg/kg is 74% on CETP [3] (serum taken 16 h after administration, read-out: % inhibition at 3 mg/kg 16 h) and 66% at CETP [3] (serum taken 24 h after administration, read-out: % inhibition at 3 mg/kg 24 h). In addition, the results for the 50% inhibitory concentration (IC50) (in assay [1]; on CETP [2]; against CETP in human plasma) were 17 nM, 32 nM and 80 nM, respectively.

For the origin of these results see patent US20080194609A1, “Chemical Compound and Its Use” (Bayer HeathCare AG, priority 2004, published 2008).
